Results: US20040120926A1, “Reactive oxygen metabolite inhibitors for use in compositions and methods of treatment” (priority 1999, published 2004)

What was measured:
[1] = test system: T-cells (CD3ε+) and NK-cells (CD56+); assay: IL-2-induced CD69 expression on T-cells and NK-cells incubated with or without MO (flow cytometry); format: cell-based, human
Description: FIG. 1 is a graph showing the protection of CD3ε+ T-cells against oxidative inhibition by DPI. Lymphocytes and MO were recovered from peripheral blood as described herein. A mixture of MO and lymphocytes was treated with culture medium (control, open circles) or IL-2 (100 U/ml; filled circles) for 16 hrs. After incubation, lymphocytes were labeled with antibodies to CD3ε and CD69. […] Similar results were obtained when CD69 expression was examined in CD56+. NK-cells incubated with MO: 29.5% (control) or 79.0% (DPI 1000 nM) of NK-cells acquired the CD69 antigen in response to IL-2. […] The results are representative of three similar experiments.
(§1) Peripheral venous blood was obtained as freshly prepared leukopacks from healthy blood donors at the Blood Centre, Sahlgren's Hospital, Goteborg, Sweden, to study the activation characteristics of cytotoxic lymphocytes in the presence and absence of MO, and ROM inhibitors. The blood (65 ml) was mixed with 92.5 ml Iscove's medium, 35 ml 6% Dextran (Kabi Pharmacia, Stockholm, Sweden) and 7.5 ml acid citrate dextrose (ACD) (Baxter, Deerfield, Ill.). After incubation for 15 minutes at room temperature, the supernatant was carefully layered onto Ficoll-Hypaque (Lymphoprep, Myegaard, Norway). Mononuclear cells (MNC) were collected at the interface after centrifugation at 380 g for 15 minutes at room temperature, washed twice in PBS and resuspended in Iscove's medium supplemented with 10% human AB+serum. During all further separation of cells, the cell suspensions were kept in siliconized test tubes (Vacuette, Greiner, Stockholm).
The MNC were further separated into lymphocyte and monocyte (MO) populations using the counter-current centrifugal elutriation (CCE) technique originally described by Yasaka and co-workers (Yasaka, T. et al., J. Immunol., 127:1515) with modifications as described in Hansson, M., et al. (J. Immunol., 156: 42 (1996); hereby incorporated by reference). Briefly, the MNC were resuspended in elutration buffer containing 0.05% BSA and 0.015% EDTA in buffered NaCl and fed into a Beckman J2-21 ultracentrifuge with a JE-6B rotor at 2100 rpm. A fraction with >90% MO was obtained at a flow rate of 18 ml/min. A lymphocyte fraction enriched for NK-cells (CD3^−/56^+ phenotype) and T-cells (CD3^+/56^−) was recovered at flow rates of 14-15 ml/min. This fraction contained <3% MO and consisted of CD3,^−/56^+ NK-cells (45-50%), CD3,^+/56^− T-cells (35-40%), CD3,^−/56^− cells (5-10%), and CD3,^+/56^+ cells (1-5%), as judged by flow cytometry. In some experiments, dynabeads (Dynal A/S, Oslo, Norway) coated with anti-CD56 were used to obtain purified lymphocyte preparations of T-cells, as described in detail by Hansson, M., et al., incorporated above.
Flow cytometry was used in the experiments described below to identify the various sub-populations of T-cells. Flow cytometry permits an investigator to examine a population of cells using a number of labeled probes to differentiate sub-populations within the larger whole. In these experiments, the CD3 marker was used to identify the sub-population of T-cells and the CD4 and CD8 markers were used to further identify the sub-population of T-cells into T helper cells and CTLs. The effects of MO exposure in the presence and absence of histamine and T-cell activation compounds were determined using the CD69 T-cell activation marker. The expression of the different markers was estimated in a lymphocyte gate using flow cytometry (as described in Hellstrand, K., et al. Cell. Immunol. 138: 44-54 (1991), and hereby incorporated by reference).
The following protocol was used in experiments reporting the detection of surface antigens of cell populations. One million cells were incubated with appropriate fluorescein isothiocynate (FITC) and phycoerythrin (PE) conjugated monoclonal antibodies (Becton & Dickinson, Stockholm, Sweden; 1:1/10^6 cells), on ice for 30 minutes. […]

[2] = Scavenging of superoxide anion; conditions: 200 U/ml
mouse sarcoma (MCG) = assay: In vivo tumor growth of subcutaneously inoculated mouse sarcoma (MCG); set-up: species or system C57/b16 mice; conditions: for Mean Tumor Weight: control .941
Description: The following in vivo study was conducted to determine DPI's effectiveness in inhibiting tumor growth rate. C57/b16 mice were subcutaneously inoculated with mouse sarcoma (MCG) on Day 1. The mice were then subcutaneously injected once daily for Days 1-9 with either NaCl or DPI. There were 5 different treatment groups, including the control group that received NaCl. The other four treatment groups were administered DPI subcutaneously at dosages of either 1 mg/kg, 10 mg/kg, 50 mg/kg, or 100 mg/kg. On Day 9, the mice were killed and tumor size and weight was measured. The resulting tumor weights are provided below in Table 2.

[3] = test system: elutriated MO (monocytes/macrophages); assay: Chemiluminescence assay of spontaneous isoluminol-enhanced extracellular superoxide anion generation in elutriated MO; format: cell-based, human
Description: as §1, with “Stockholm). […]” for “Stockholm).”
To assess whether DPI and histamine inhibited the spontaneous release of ROM from MO, a chemiluminescence assay was performed that specifically quantified extracellular ROM (superoxide anion). The spontaneous isoluminol-enhanced extracellular generation of superoxide anion in elutriated MO was measured using the assay described in Hellstrand, K., et al., J Immunol, 153:4940-4947 (1994) and in Lundqvist & Dahlgren, Free Radic. […]

T-cells and NK-cells = assay: MO-induced apoptosis in T-cells and NK-cells (flow cytometry, reduced forward and increased right angle scatter); format: cell-based, human; conditions: lymphocytes with MO, DPI 100 nM, Fas:Fc-IgG 20 μg/ml

Compound: superoxide dismutase [reference compound]
- MO-induced inhibition of IL-2-induced CD69 expression in T-cells and NK-cells ([1]; superoxide dismutase 200 U/ml): ineffective
- superoxide anion scavenged [2]: > 90%

Compound: c1ccc([I+]c2ccccc2)cc1 [DPI, diphenyliodonium]
- Mean Tumor Weight (mouse sarcoma (MCG); 1 mg/kg s.c. once daily Days 1-9, Day 9): 1.107 gms
- Mean Tumor Weight (mouse sarcoma (MCG); 10 mg/kg s.c. once daily Days 1-9, Day 9): .643 gms
- Mean Tumor Weight (mouse sarcoma (MCG); 50 mg/kg s.c. once daily Days 1-9, Day 9): .638 gms
- Mean Tumor Weight (mouse sarcoma (MCG); 100 mg/kg s.c. once daily Days 1-9, Day 9): .473 gms
- effect on tumor growth rate in vivo (mouse sarcoma (MCG); 1, 10, 50, 100 mg/kg s.c. once daily Days 1-9): dose dependent inhibiting effect
- reduction of released extracellular superoxide anion ([3]; DPI 10 nM, MO from three blood donors): more than four fold reduction
- NK-cells that acquired the CD69 antigen in response to IL-2 ([1]; CD56+ NK-cells incubated with MO, DPI 1000 nM, IL-2 100 U/ml, 16 hrs, control 29.5%): 79.0%
- MO-induced inhibition of T-cells and NK-cells (IL-2-induced CD69) ([1]; DPI, lymphocytes with MO, IL-2 100 U/ml, 16 hours): significantly reversed
- IL-2-induced expression of CD69 in T-cells or NK-cells ([1]; incubated in the absence of MO): did not increase
- viable CD56+/69+ (gated events) ([1]; lymphocytes with MO, DPI 100 nM, Fas:Fc-IgG 20 μg/ml, control 36): 1248 gated events
- viable CD3+/CD69+ (gated events) ([1]; lymphocytes with MO, DPI 100 nM, Fas:Fc-IgG 20 μg/ml, control 89): 701 gated events
- apoptotic CD3+/CD69+(%) (T-cells and NK-cells; control 52): 7%
- apoptotic CD56+/CD69+(%) (T-cells and NK-cells; control 71): 13%

Compound: Catalase [reference compound]
- MO-induced inhibition of IL-2-induced CD69 expression in T-cells and NK-cells ([1]; catalase at concentrations exceeding 50 U/ml): significantly reversed

Compound: NCCc1c[nH]cn1 [histamine, reference compound]
- inhibition of the concentration of extracellular superoxide anion ([3]; histamine at 50 μM): more than five-fold
